Results: ChEMBL document CHEMBL1138480, “Discovery of highly potent and selective biphenylacylsulfonamide-based beta3-adrenergic receptor agonists and evaluation of physical properties as potential overactive bladder therapies: part 5” (J Med Chem, 2009)
pEC50: −log10 of the molar value.

Columns and labels:
[1] = target: Beta-3 adrenergic receptor (Canis lupus familiaris, UniProt O02662); assay: Agonist activity at dog recombinant beta3 adrenergic receptor expressed in CHO cells assessed as cAMP accumulation by enzyme immunoassay; assay type: functional, cell-based; conditions: read-out: EC50
Chain of Beta-3 adrenergic receptor (Canis lupus familiaris, UniProt O02662) (O02662 whole entry): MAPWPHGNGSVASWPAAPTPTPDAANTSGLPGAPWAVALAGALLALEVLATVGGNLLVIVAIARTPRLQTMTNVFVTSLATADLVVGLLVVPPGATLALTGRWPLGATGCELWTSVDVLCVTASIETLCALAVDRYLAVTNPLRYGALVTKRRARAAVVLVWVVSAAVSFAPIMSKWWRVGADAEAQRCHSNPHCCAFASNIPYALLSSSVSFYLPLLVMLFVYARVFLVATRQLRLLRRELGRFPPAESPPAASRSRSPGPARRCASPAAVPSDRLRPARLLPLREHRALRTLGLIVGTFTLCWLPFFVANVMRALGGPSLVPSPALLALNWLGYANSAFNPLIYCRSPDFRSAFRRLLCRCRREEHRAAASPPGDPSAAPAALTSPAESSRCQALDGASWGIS

[2] = system: Canis familiaris; assay: Inhibition of carbachol-induced increase in intravesical pressure in intraduodenally dosed Beagle dog OAB model for 30 mins measured for 180 mins; assay type: functional, organism-based; conditions: Canis lupus familiaris
[3] = Total clearance in rat at 0.32 mg/kg, iv by cassette assay; assay type: ADME, organism-based; parameters: dose 0.32 mg/kg, route intravenous; conditions: in vivo
[4] = Terminal half life in Beagle dog plasma at 0.10 mg/kg, iv by cassette assay; assay type: ADME, organism-based, Canis lupus familiaris; parameters: dose 0.1 mg/kg, route intravenous; conditions: 0.1 mg/kg, read-out: beta t1/2 (converted)
[5] = Metabolic stability in rat liver microsomes assessed as intrinsic clearance after 120 mins in presence of NADPH; assay type: ADME, Microsome
[6] = AUC (0 to 24 hrs) in rat at 0.32 mg/kg, po by cassette assay; assay type: ADME, organism-based; parameters: time < 24 hr, dose 0.32 mg/kg, route oral; conditions: plasma
[7] = Cmax in Beagle dog at 0.10 mg/kg, po by cassette assay; assay type: ADME, organism-based, Canis lupus familiaris; parameters: dose 0.1 mg/kg, route oral; conditions: in vivo, 0.1 mg/kg
[8] = target: Beta-2 adrenergic receptor (Homo sapiens, UniProt P07550)
Chain of Beta-2 adrenergic receptor (P07550 whole entry): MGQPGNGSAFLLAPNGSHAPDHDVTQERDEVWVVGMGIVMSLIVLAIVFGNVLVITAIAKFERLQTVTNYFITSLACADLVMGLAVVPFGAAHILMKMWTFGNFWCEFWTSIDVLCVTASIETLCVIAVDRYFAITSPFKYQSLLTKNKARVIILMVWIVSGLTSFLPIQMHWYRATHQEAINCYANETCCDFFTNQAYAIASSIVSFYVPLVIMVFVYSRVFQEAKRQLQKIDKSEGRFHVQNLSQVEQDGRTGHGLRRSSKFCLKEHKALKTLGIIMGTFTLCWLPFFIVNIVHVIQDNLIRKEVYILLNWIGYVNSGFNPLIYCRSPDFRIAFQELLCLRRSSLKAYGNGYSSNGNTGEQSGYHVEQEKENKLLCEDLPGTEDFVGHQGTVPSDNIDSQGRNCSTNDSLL
Description: Agonist activity at human recombinant beta2 adrenergic receptor expressed in CHO cells assessed as cAMP accumulation by enzyme immunoassay

[9] = Total clearance in monkey at 0.32 mg/kg, iv by cassette assay; assay type: ADME, organism-based, Macaca mulatta; parameters: dose 0.32 mg/kg, route intravenous; conditions: rhesus monkey, in vivo
[10] = Bioavailability in Beagle dog at 0.10 mg/kg, po and iv by cassette assay; assay type: ADME, organism-based, Canis lupus familiaris; conditions: in vivo, 0.1 mg/kg
[11] = Metabolic stability in human liver microsomes assessed as intrinsic clearance after 120 mins in presence of NADPH; assay type: ADME, Microsome
[12] = Inhibition of KCl-induced tonic contraction in Beagle dog detrusor muscle strips preincubated for 15 mins before KCl challenge; assay type: functional; conditions: Canis lupus familiaris; for pEC50: read-out: EC50
[13] = target: Beta-3 adrenergic receptor (Homo sapiens, UniProt P13945); assay: Agonist activity at human recombinant beta3 adrenergic receptor expressed in CHO cells assessed as cAMP accumulation by enzyme immunoassay; assay type: functional, cell-based; conditions: for pEC50: read-out: EC50
Chain of Beta-3 adrenergic receptor (Homo sapiens, UniProt P13945) (P13945 whole entry): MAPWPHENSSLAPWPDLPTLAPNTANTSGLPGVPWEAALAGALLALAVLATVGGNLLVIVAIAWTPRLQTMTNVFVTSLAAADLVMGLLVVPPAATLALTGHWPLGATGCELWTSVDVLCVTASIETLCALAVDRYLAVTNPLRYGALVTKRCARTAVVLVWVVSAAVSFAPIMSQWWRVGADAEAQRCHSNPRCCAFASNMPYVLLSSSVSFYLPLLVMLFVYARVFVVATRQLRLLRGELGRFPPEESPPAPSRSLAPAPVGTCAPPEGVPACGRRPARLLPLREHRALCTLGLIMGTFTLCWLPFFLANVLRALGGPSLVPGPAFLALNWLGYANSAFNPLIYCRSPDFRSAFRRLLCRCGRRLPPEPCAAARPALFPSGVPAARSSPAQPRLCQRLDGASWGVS

[14] = Total clearance in Beagle dog at 0.10 mg/kg, iv by cassette assay; assay type: ADME, organism-based, Canis lupus familiaris; parameters: dose 0.1 mg/kg, route intravenous; conditions: in vivo, 0.1 mg/kg
[15] = AUC (0 to 24 hrs) in monkey at 0.32 mg/kg, po by cassette assay; assay type: ADME, organism-based, Macaca mulatta; parameters: time < 24 hr, dose 0.32 mg/kg, route oral; conditions: rhesus monkey, plasma
[16] = Bioavailability in monkey at 0.32 mg/kg, po and iv by cassette assay; assay type: ADME, organism-based, Macaca mulatta; conditions: rhesus monkey, in vivo
[17] = Cmax in rat at 0.32 mg/kg, po by cassette assay; assay type: ADME, organism-based; parameters: dose 0.32 mg/kg, route oral; conditions: in vivo
[18] = target: Beta-1 adrenergic receptor (Homo sapiens, UniProt P08588)
Chain of Beta-1 adrenergic receptor (P08588 whole entry): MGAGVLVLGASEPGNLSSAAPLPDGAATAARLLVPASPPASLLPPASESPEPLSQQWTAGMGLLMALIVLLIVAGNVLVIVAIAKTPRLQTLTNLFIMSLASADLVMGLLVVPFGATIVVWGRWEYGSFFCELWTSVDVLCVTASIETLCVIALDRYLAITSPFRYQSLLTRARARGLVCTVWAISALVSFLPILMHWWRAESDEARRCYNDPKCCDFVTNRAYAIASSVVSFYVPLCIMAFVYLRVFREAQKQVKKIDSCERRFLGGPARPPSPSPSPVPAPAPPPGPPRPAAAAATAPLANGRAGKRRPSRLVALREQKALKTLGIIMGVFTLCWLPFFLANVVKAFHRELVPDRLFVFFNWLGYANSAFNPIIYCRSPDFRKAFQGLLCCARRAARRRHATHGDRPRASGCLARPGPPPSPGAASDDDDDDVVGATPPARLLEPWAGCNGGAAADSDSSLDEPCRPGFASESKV
Description: Agonist activity at human recombinant beta-1 adrenergic receptor expressed in CHO cells assessed as cAMP accumulation by enzyme immunoassay

[19] = Metabolic stability in monkey liver microsomes assessed as intrinsic clearance after 120 mins in presence of NADPH; assay type: ADME, Macaca mulatta, Microsome; conditions: rhesus monkey
[20] = Cmax in monkey at 0.32 mg/kg, po by cassette assay; assay type: ADME, organism-based, Macaca mulatta; parameters: dose 0.32 mg/kg, route oral; conditions: rhesus monkey, in vivo
[21] = Ratio of EC50 for inhibition of KCl-induced tonic contraction in anesthetized Beagle dog detrusor muscle strip to EC50 for dog recombinant beta3 adrenergic receptor expressed in CHO cells; parameters: species or system Canis lupus familiaris
[22] = Terminal half life in monkey plasma at 0.32 mg/kg, iv by cassette assay; assay type: ADME, organism-based, Macaca mulatta; parameters: dose 0.32 mg/kg, route intravenous; conditions: rhesus monkey, read-out: beta t1/2 (converted)
[23] = system: Canis familiaris; assay: Inhibition of carbachol-induced increase in intravesical pressure in Beagle dog OAB model at 10 ug/kg, iv for 30 mins measured for 180 mins; assay type: functional; conditions: Canis lupus familiaris
[24] = AUC (0 to 24 hrs) in Beagle dog at 0.10 mg/kg, po by cassette assay; assay type: ADME, organism-based, Canis lupus familiaris; parameters: time < 24 hr, dose 0.1 mg/kg, route oral; conditions: plasma, 0.1 mg/kg
[25] = Terminal half life in rat plasma at 0.32 mg/kg, iv by cassette assay; assay type: ADME, organism-based; parameters: dose 0.32 mg/kg, route intravenous; conditions: read-out: beta t1/2 (converted)
[26] = Protein binding in Beagle dog serum; assay type: ADME, cell-free, Canis lupus familiaris; conditions: read-out: PPB (converted)
[27] = Bioavailability in rat at 0.32 mg/kg, po and iv by cassette assay; assay type: ADME, organism-based; conditions: in vivo
[28] = Terminal half life in Beagle dog at 0.10 mg/kg, po; assay type: ADME, organism-based, Canis lupus familiaris; parameters: dose 0.1 mg/kg, route oral; conditions: in vivo, 0.1 mg/kg, read-out: beta t1/2 (converted)
[29] = Bioavailability in Beagle dog at 0.10 mg/kg, po and iv; assay type: ADME, organism-based, Canis lupus familiaris; conditions: in vivo, 0.1 mg/kg
[30] = Total clearance in Beagle dog at 0.10 mg/kg, iv; conditions: in vivo, 0.1 mg/kg
[31] = Cmax in Beagle dog at 0.10 mg/kg, po; assay type: ADME, organism-based, Canis lupus familiaris; parameters: dose 0.1 mg/kg, route oral; conditions: in vivo, 0.1 mg/kg
[32] = AUC (0 to 24 hrs) in Beagle dog at 0.10 mg/kg, po; assay type: ADME, organism-based, Canis lupus familiaris; parameters: time < 24 hr, dose 0.1 mg/kg, route oral; conditions: plasma, 0.1 mg/kg
[33] = Metabolic stability in dog liver microsomes assessed as intrinsic clearance after 120 mins in presence of NADPH; assay type: ADME, Canis lupus familiaris, Microsome

## CS(=O)(=O)NC(=O)c1ccc(-c2ccc(CCNC[C@H](O)c3cccnc3)cc2)cc1OC1CCCCC1.Cl.Cl
[1]
  pEC50: 8.85
[2]
  pEC50: 7.58
  ED50: 0.0162 mg/kg
[3]
  clearance: 17.1 mL/min/kg
[4]
  half-life: 5.5 h
[5]
  CLint scaled: 46.9 mL/min/kg
[6]
  AUC(0-t) at 24 h: 72.2 ng·h/mL
[7]
  Cmax: 34.5 ng/mL
[8]
  pEC50: < 5.00
[9]
  clearance: 7.5 mL/min/kg
[10]
  bioavailability: 81%
[11]
  CLint scaled: 3.5 mL/min/kg
[12]
  pEC50: 7.21
[13]
  pEC50: 9.89
[14]
  clearance: 3.2 mL/min/kg
[15]
  AUC(0-t) at 24 h: 272 ng·h/mL
[16]
  bioavailability: 38%
[17]
  Cmax: 17 ng/mL
[18]
  pEC50: 6.10
[19]
  CLint scaled: 3.4 mL/min/kg
[20]
  Cmax: 35.1 ng/mL
[21]
  Ratio EC50: >50
[22]
  half-life: 4.7 h
[23]
  inhibition in vivo at 0.01 mg/kg: > 70%
[24]
  AUC(0-t) at 24 h: 385 ng·h/mL
[25]
  half-life: 3 h
[26]
  fraction unbound: 0.17
[27]
  bioavailability: 25%

## CS(=O)(=O)NC(=O)c1ccc(-c2ccc(CCNC[C@H](O)c3ccccc3)cc2)cc1OC1CCCCC1.Cl
[1]
  pEC50: 9.08
[4]
  half-life: 7.8 h
[7]
  Cmax: 22.2 ng/mL
[10]
  bioavailability: 70%
[12]
  pEC50: < 7.30
[12]; read-out: pEC50 (converted)
  EC50: 12.6 nM
[13]
  pEC50: 9.37
[13]; read-out: pEC50 (converted)
  EC50: 0.126 nM
[14]
  clearance: 3 mL/min/kg
[18]
  pEC50: < 6.00
[21]
  Ratio EC50: >50
[23]
  inhibition in vivo at 0.01 mg/kg: 58%
[24]
  AUC(0-t) at 24 h: 363 ng·h/mL

## CC(C)Sc1cc(-c2ccc(CCNC[C@H](O)c3ccccc3)cc2)ccc1C(=O)NS(C)(=O)=O.Cl
[1]
  pEC50: 9.17
[28]
  half-life: 4.8 h
[2]
  pEC50: 8.09
  ED50: 0.0145 mg/kg
[3]
  clearance: 19.6 mL/min/kg
[4]
  half-life: 4.3 h
[5]
  CLint scaled: 84.3 mL/min/kg
[6]
  AUC(0-t) at 24 h: 108 ng·h/mL
[7]
  Cmax: 39.8 ng/mL
[8]
  pEC50: < 5.00
[9]
  clearance: 9.2 mL/min/kg
[29]
  bioavailability: 62%
[10]
  bioavailability: 75%
[12]
  pEC50: 7.94
[30]
  clearance: 5.1 mL/min/kg
[13]
  pEC50: 9.49
[14]
  clearance: 2.9 mL/min/kg
[31]
  Cmax: 18.2 ng/mL
[15]
  AUC(0-t) at 24 h: 143 ng·h/mL
[16]
  bioavailability: 24%
[17]
  Cmax: 9.9 ng/mL
[18]
  pEC50: < 6.00
[32]
  AUC(0-t) at 24 h: 215 ng·h/mL
[20]
  Cmax: 15.7 ng/mL
[22]
  half-life: 5.8 h
[23]
  inhibition in vivo at 0.01 mg/kg: > 70%
[24]
  AUC(0-t) at 24 h: 441 ng·h/mL
[25]
  half-life: 2.3 h
[26]
  fraction unbound: 0.1
[27]
  bioavailability: 41%

## CC(C)Nc1cc(-c2ccc(CCNC[C@H](O)c3ccccc3)cc2)ccc1C(=O)NS(C)(=O)=O.Cl.Cl
[1]
  pEC50: 8.96
[2]
  pEC50: 8.15
  ED50: 0.0349 mg/kg
[3]
  clearance: 16.9 mL/min/kg
[4]
  half-life: 6.3 h
[5]
  CLint scaled: 36 mL/min/kg
[6]
  AUC(0-t) at 24 h: 60.9 ng·h/mL
[7]
  Cmax: 8.6 ng/mL
[8]
  pEC50: < 5.00
[9]
  clearance: 25.9 mL/min/kg
[10]
  bioavailability: 45%
[12]
  pEC50: 8.92
[13]
  pEC50: 9.22
[14]
  clearance: 7.5 mL/min/kg
[15]
  AUC(0-t) at 24 h: 19.3 ng·h/mL
[16]
  bioavailability: 10%
[17]
  Cmax: 14.9 ng/mL
[18]
  pEC50: 6.59
[19]
  CLint scaled: 5.4 mL/min/kg
[20]
  Cmax: 2.7 ng/mL
[22]
  half-life: 3.1 h
[23]
  inhibition in vivo at 0.01 mg/kg: > 70%
[24]
  AUC(0-t) at 24 h: 95.8 ng·h/mL
[33]
  CLint scaled: 3.3 mL/min/kg
[25]
  half-life: 4.1 h
[26]
  fraction unbound: 0.1
[27]
  bioavailability: 20%
